IC50 data for six compounds are collected here from ChEMBL document CHEMBL4665903, “Novel Tricyclic Compounds for Treating Bacterial Infection” (ACS Med Chem Lett, 2020).

Common to all, as to assay type: functional, organism-based
For one assay, the system named is Staphylococcus aureus. Nature of the assay: Antibacterial activity against Staphylococcus aureus ATCC 29213 assessed as bacterial growth inhibition and measured every 20 mins for 16 hrs.
In another assay the test system is Klebsiella pneumoniae. Nature of the assay: Antibacterial activity against Klebsiella pneumoniae ATCC 10031 assessed as bacterial growth inhibition and measured every 20 mins for 16 hrs.
For the next assay, the system named is Acinetobacter baumannii. In words: Antibacterial activity against Acinetobacter baumannii ATCC 17978 assessed as bacterial growth inhibition and measured every 20 mins for 16 hrs.

The term IC50 denotes the concentration that gives 50% inhibition. With `CCNc1cc(F)cc2c1[nH]c1ncc(-c3cncc(C#N)c3)c(N3CC[C@@]4(C[C@H]4N)C3)c12`, the figures for the IC50 with Staphylococcus aureus, in the assay on Klebsiella pneumoniae and with Acinetobacter baumannii were 863 nM, below 98 nM and below 98 nM, respectively.

For `CCNc1cc(F)cc2c1[nH]c1ncc(-c3cncc(C#N)c3)c(N3CCC(F)(CN)C3)c12` (stereo not drawn), the values for the IC50 with Staphylococcus aureus, in the assay with Klebsiella pneumoniae and in the assay with Acinetobacter baumannii were 312 nM, below 98 nM and below 98 nM, respectively.

For the compound `CNc1cc(F)c(F)c2c1[nH]c1ncc(-c3cnc4ccnn4c3)c(N3CC[C@H]4CN(C)C[C@H]43)c12`, the IC50 in the assay on Staphylococcus aureus is 369 nM; with Klebsiella pneumoniae it was below 98 nM; in the assay on Acinetobacter baumannii it was below 98 nM.

For `CNc1cc(F)c(F)c2c1[nH]c1ncc(-c3cncc(C#N)c3)c(N3CCCC(F)(CN)C3)c12` (stereo not drawn), the IC50 was 477 nM with Staphylococcus aureus, below 98 nM with Klebsiella pneumoniae and below 98 nM in the assay on Acinetobacter baumannii.

As to `CNc1cc(F)c(F)c2c1[nH]c1ncc(-c3cnc(OC)nc3)c(N3CC[C@@]4(C[C@@H]4N)C3)c12`, the figures for the IC50 in the assay on Staphylococcus aureus, in the assay with Klebsiella pneumoniae and in the assay with Acinetobacter baumannii were 184 nM, below 98 nM and below 98 nM, respectively.

Turning to `CCNc1cc(F)c(F)c2c1[nH]c1ncc(-c3cnc(OC)nc3)c(N3CCC[C@@H](CN)C3)c12`, the figures for the IC50 in the assay with Staphylococcus aureus, with Klebsiella pneumoniae and in the assay with Acinetobacter baumannii were 394 nM, below 98 nM and below 98 nM, respectively.
